Molecular target: T1, human histamine 3 receptor (H3R) (Homo sapiens, UniProt Q9Y5N1)
T1 construct: expressed in transfected cells; membranes
Experiment: Histamine H3 Receptor Binding Assay (competitive inhibition SPA, [3H] α-methylhistamine, HEK293 H3R8 membranes)
Source text: The compounds of the present invention can readily be evaluated by using a competitive inhibition Scintillation Proximity Assay (SPA) based on a H3R binding assay using [3H] a methylhistamine as ligand. Stable cell lines, including but not limited to HEK can be transfected with cDNA coding for H3R to prepare membranes used for the binding assay. The technique is illustrated below (Preparation of Histamine Receptor Subtype Membranes) for the histamine receptor subtypes.
cDNA for the human histamine 3 receptor is cloned and expressed as described in (A. Preparation H1R membranes), above. Transfected cells are selected using G418 ([…]), grown, and tested for histamine binding by the SPA described above. For total binding, cells are assayed in a SPA reaction described above containing 50 mM Tris-HCL (assay buffer), pH 7.6, 1 mg wheat germ agglutinin SPA beads (Amersham Pharmacia Biotech, #RPNQ0001), and 1 nM (3H)-n-alpha-methylhistamine (NEN, NET1027) (total volume per well=200 μl). Thioperimide is added to determine non-specific binding. Several clones are selected as positive for binding, and a single clone (H3R8) is used to prepare membranes for binding studies described above. Five micrograms of protein is used per well in the SPA receptor-binding assay. […]

T1 sequence (Q9Y5N1 whole entry): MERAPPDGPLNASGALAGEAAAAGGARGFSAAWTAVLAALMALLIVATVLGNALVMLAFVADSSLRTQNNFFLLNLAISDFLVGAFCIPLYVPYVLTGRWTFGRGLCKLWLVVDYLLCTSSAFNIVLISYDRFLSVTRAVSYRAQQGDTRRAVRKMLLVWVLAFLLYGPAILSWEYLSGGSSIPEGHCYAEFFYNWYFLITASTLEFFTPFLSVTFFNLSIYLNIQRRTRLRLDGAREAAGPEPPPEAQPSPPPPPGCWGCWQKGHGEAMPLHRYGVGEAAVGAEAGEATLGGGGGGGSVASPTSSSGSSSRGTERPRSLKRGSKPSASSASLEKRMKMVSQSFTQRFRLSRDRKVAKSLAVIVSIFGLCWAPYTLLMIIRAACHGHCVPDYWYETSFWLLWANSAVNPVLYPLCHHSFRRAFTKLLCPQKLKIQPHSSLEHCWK

Ki [µM] | Compound
0.0216 | CCCCNc1ccc(C(=O)N2CCCC2CN2CCCC2)cc1 (centres unmarked)
0.0117 | O=C(c1ccc(Sc2ccncn2)cc1)N1CCCC1CN1CCCC1 (centres unmarked)
